The series deals with UBE3A-ATS. Nature of the series: mouse, dose not given. Particulars: ASO.

HELM strings list units from the 5' end as sugar, base in round brackets, then linkage (d deoxyribose, r ribose, m 2'-O-methyl, p phosphodiester). Strings are as the collection lists them; they lack the last nucleoside at the 3' end of the tested compound. [moe] = 2'-O-(2-methoxyethyl) (MOE); [sp] = phosphorothioate linkage; [m5C] = 5-methylcytosine

For 26 substances, 3 h FOB score results are on record in the OligoGym collection.

“RNA1{[moe]([m5C])[sp].[moe](A)[sp].[moe](A)[sp].[moe]([m5C])[sp].[moe](T)[sp].d(G)[sp].d(T)[sp].d(T)[sp].d(A)[sp].d([m5C])[sp].d([m5C])[sp].d(A)[sp].d(A)[sp].d(G)[sp].d(A)[sp].[moe]([m5C])[sp].[moe](T)[sp].[moe](T)[sp].[moe]([m5C])}$$$$ (last 3' nucleoside missing)” registered a 3 h FOB score of 4.8 score 0-7.

Substance “RNA1{[moe]([m5C])[sp].[moe](A)p.[moe](A)p.[moe](G)p.[moe](A)p.d([m5C])[sp].d([m5C])[sp].d(T)[sp].d(A)[sp].d(T)[sp].d(A)[sp].d(G)[sp].d(G)[sp].d(A)[sp].d([m5C])[sp].[moe]([m5C])p.[moe](T)p.[moe]([m5C])[sp].[moe](A)}$$$$ (last 3' nucleoside missing)” displayed a 3 h FOB score of 3 score 0-7.

“RNA1{[moe]([m5C])[sp].[moe](A)p.[moe](A)p.[moe](T)p.[moe](G)p.d(G)[sp].d(T)[sp].d(T)[sp].d(T)[sp].d(A)[sp].d(G)[sp].d(T)[sp].d(G)[sp].d(T)[sp].d([m5C])[sp].[moe](A)p.[moe](T)p.[moe](A)[sp].[moe](T)}$$$$ (last 3' nucleoside missing)” yielded a 3 h FOB score of 5 score 0-7.

Substance “RNA1{[moe]([m5C])[sp].[moe](A)p.[moe](A)p.[moe]([m5C])p.[moe](T)p.d(T)[sp].d([m5C])[sp].d(A)[sp].d(T)[sp].d([m5C])[sp].d(A)[sp].d(A)[sp].d(T)[sp].d(A)[sp].d(T)[sp].[moe](T)p.[moe](T)p.[moe]([m5C])[sp].[moe]([m5C])}$$$$ (last 3' nucleoside missing)” gave a 3 h FOB score of 1 score 0-7.

Take “RNA1{[moe]([m5C])[sp].[moe](A)p.[moe](G)p.[moe](A)p.[moe](G)p.d(T)[sp].d(G)[sp].d(T)[sp].d([m5C])[sp].d(T)[sp].d(T)[sp].d(A)[sp].d(G)[sp].d(G)[sp].d(G)[sp].[moe](T)p.[moe]([m5C])p.[moe](T)[sp].[moe]([m5C])}$$$$ (last 3' nucleoside missing)”: the 3 h FOB score came to 5.5 score 0-7.

“RNA1{[moe]([m5C])[sp].[moe](A)p.[moe](G)p.[moe](A)p.[moe](T)p.d(T)[sp].d([m5C])[sp].d([m5C])[sp].d(T)[sp].d(A)[sp].d(A)[sp].d(A)[sp].d(T)[sp].d(A)[sp].d([m5C])[sp].[moe](G)p.[moe]([m5C])p.[moe](A)[sp].[moe]([m5C])}$$$$ (last 3' nucleoside missing)” registered a 3 h FOB score of 0 score 0-7.

In turn, “RNA1{[moe]([m5C])[sp].[moe](A)p.[moe](G)p.[moe](A)p.[moe]([m5C])p.d(T)[sp].d(T)[sp].d(A)[sp].d(T)[sp].d(T)[sp].d(G)[sp].d(A)[sp].d(G)[sp].d(G)[sp].d(A)[sp].[moe](T)p.[moe](G)p.[moe](G)[sp].[moe](T)}$$$$ (last 3' nucleoside missing)” gave a 3 h FOB score of 5.7 score 0-7.

The substance “RNA1{[moe]([m5C])[sp].[moe](A)p.[moe](G)p.[moe](G)p.[moe](T)p.d(G)[sp].d(T)[sp].d([m5C])[sp].d(T)[sp].d(T)[sp].d(A)[sp].d(T)[sp].d(A)[sp].d(T)[sp].d([m5C])[sp].[moe](T)p.[moe](A)p.[moe](T)[sp].[moe](G)}$$$$ (last 3' nucleoside missing)” returned a 3 h FOB score of 0 score 0-7.

For the substance “RNA1{[moe]([m5C])[sp].[moe](A)p.[moe](G)p.[moe](T)[sp].d(T)[sp].d(A)[sp].d(G)[sp].d(G)[sp].d(T)[sp].d(T)[sp].d(A)[sp].d(G)[sp].[moe](T)p.[moe](G)p.[moe]([m5C])p.[moe](A)[sp].[moe]([m5C])}$$$$ (last 3' nucleoside missing)”, the 3 h FOB score was found to be 2 score 0-7.

As to “RNA1{[moe]([m5C])[sp].[moe](A)p.[moe](G)p.[moe](T)p.[moe](A)p.d(G)[sp].d(T)[sp].d(G)[sp].d(G)[sp].d(T)[sp].d(A)[sp].d(T)[sp].d([m5C])[sp].d(A)[sp].d(A)[sp].[moe](A)p.[moe](T)p.[moe]([m5C])[sp].[moe](T)}$$$$ (last 3' nucleoside missing)”, the 3 h FOB score is 6.2 score 0-7.

As for “RNA1{[moe]([m5C])[sp].[moe](A)p.[moe](G)p.[moe](T)p.[moe](A)p.d(T)[sp].d([m5C])[sp].d(T)[sp].d(T)[sp].d(A)[sp].d(A)[sp].d([m5C])[sp].d(T)[sp].d(G)[sp].d(G)[sp].[moe](T)p.[moe](G)p.[moe](A)[sp].[moe](A)}$$$$ (last 3' nucleoside missing)”, the 3 h FOB score came to 1 score 0-7.

Regarding “RNA1{[moe]([m5C])[sp].[moe](A)p.[moe](G)p.[moe](T)p.[moe](T)[sp].d(A)[sp].d(G)[sp].d(G)[sp].d(T)[sp].d(T)[sp].d(A)[sp].d(G)[sp].d(T)[sp].[moe](G)p.[moe]([m5C])p.[moe](A)[sp].[moe]([m5C])}$$$$ (last 3' nucleoside missing)”, the 3 h FOB score is 4 score 0-7.

Turning to “RNA1{[moe]([m5C])[sp].[moe](A)p.[moe](G)p.[moe](T)p.[moe](T)p.[moe](A)[sp].d(G)[sp].d(G)[sp].d(T)[sp].d(T)[sp].d(A)[sp].d(G)[sp].d(T)[sp].d(G)[sp].[moe]([m5C])p.[moe](A)[sp].[moe]([m5C])}$$$$ (last 3' nucleoside missing)”, the 3 h FOB score came to 3.7 score 0-7.

Turning to “RNA1{[moe]([m5C])[sp].[moe](A)p.[moe](G)p.[moe](T)p.[moe](T)p.[moe](A)p.d(G)[sp].d(G)[sp].d(T)[sp].d(T)[sp].d(A)[sp].d(G)[sp].d(T)[sp].d(G)[sp].d([m5C])[sp].d(A)[sp].[moe]([m5C])p.[moe](A)[sp].[moe](G)}$$$$ (last 3' nucleoside missing)”, the 3 h FOB score came to 5.2 score 0-7.

The substance “RNA1{[moe]([m5C])[sp].[moe](A)p.[moe](G)p.[moe](T)p.[moe](T)p.d(A)[sp].d(G)[sp].d(G)[sp].d(T)[sp].d(T)[sp].d(A)[sp].d(G)[sp].d(T)[sp].d(G)[sp].d([m5C])[sp].[moe](A)p.[moe]([m5C])p.[moe](A)[sp].[moe](G)}$$$$ (last 3' nucleoside missing)” registered a 3 h FOB score of 6 score 0-7.

The substance “RNA1{[moe]([m5C])[sp].[moe](A)p.[moe](G)p.[moe](T)p.[moe](T)p.d(G)[sp].d(T)[sp].d(G)[sp].d(T)[sp].d(A)[sp].d(T)[sp].d(T)[sp].d(G)[sp].d(A)[sp].d([m5C])[sp].[moe](T)p.[moe](A)p.[moe](A)[sp].[moe](G)}$$$$ (last 3' nucleoside missing)” yielded a 3 h FOB score of 4.8 score 0-7.

As for “RNA1{[moe]([m5C])[sp].[moe](A)p.[moe](G)p.[moe](T)p.[moe](T)p.d(T)[sp].d(T)[sp].d([m5C])[sp].d(G)[sp].d([m5C])[sp].d([m5C])[sp].d([m5C])[sp].d(G)[sp].d(T)[sp].d(T)[sp].[moe](A)p.[moe]([m5C])p.[moe]([m5C])[sp].[moe](T)}$$$$ (last 3' nucleoside missing)”, the 3 h FOB score stood at 5 score 0-7.

Turning to “RNA1{[moe]([m5C])[sp].[moe](A)p.[moe](G)p.[moe]([m5C])p.[moe]([m5C])p.d(A)[sp].d(G)[sp].d(G)[sp].d(T)[sp].d(G)[sp].d(T)[sp].d([m5C])[sp].d(T)[sp].d(T)[sp].d(A)[sp].[moe](T)p.[moe](A)p.[moe](T)[sp].[moe]([m5C])}$$$$ (last 3' nucleoside missing)”, the 3 h FOB score amounted to 2.3 score 0-7.

Regarding “RNA1{[moe]([m5C])[sp].[moe](A)p.[moe](G)p.[moe]([m5C])p.[moe]([m5C])p.d(A)[sp].d([m5C])[sp].d(T)[sp].d(T)[sp].d(T)[sp].d(G)[sp].d([m5C])[sp].d(A)[sp].d(A)[sp].d([m5C])[sp].[moe](T)p.[moe]([m5C])p.[moe](A)[sp].[moe](A)}$$$$ (last 3' nucleoside missing)”, the 3 h FOB score amounted to 6.2 score 0-7.

Consider “RNA1{[moe]([m5C])[sp].[moe](A)p.[moe](T)p.[moe](A)[sp].d([m5C])[sp].d([m5C])[sp].d([m5C])[sp].d(A)[sp].d(G)[sp].d(G)[sp].d(G)[sp].d(T)[sp].[moe](A)p.[moe](G)p.[moe](G)p.[moe](A)[sp].[moe](T)}$$$$ (last 3' nucleoside missing)”, for which the 3 h FOB score was determined as 1 score 0-7.

The substance “RNA1{[moe]([m5C])[sp].[moe](A)p.[moe](T)p.[moe](A)p.[moe](T)p.d(A)[sp].d([m5C])[sp].d(T)[sp].d(A)[sp].d(A)[sp].d(A)[sp].d(T)[sp].d(G)[sp].d(T)[sp].d(T)[sp].[moe](G)p.[moe]([m5C])p.[moe]([m5C])[sp].[moe](G)}$$$$ (last 3' nucleoside missing)” came in with a 3 h FOB score of 1 score 0-7.

For “RNA1{[moe]([m5C])[sp].[moe](A)p.[moe](T)p.[moe](A)p.[moe](T)p.d(G)[sp].d(A)[sp].d(A)[sp].d(G)[sp].d([m5C])[sp].d(T)[sp].d(A)[sp].d(T)[sp].d(A)[sp].d(G)[sp].[moe](G)p.[moe](T)p.[moe](A)[sp].[moe]([m5C])}$$$$ (last 3' nucleoside missing)”, the 3 h FOB score was 1 score 0-7.

Take “RNA1{[moe]([m5C])[sp].[moe](A)p.[moe](T)p.[moe](A)p.[moe]([m5C])[sp].d([m5C])[sp].d([m5C])[sp].d(A)[sp].d(G)[sp].d(G)[sp].d(G)[sp].d(T)[sp].d(A)[sp].[moe](G)p.[moe](G)p.[moe](A)[sp].[moe](T)}$$$$ (last 3' nucleoside missing)”: the 3 h FOB score was 1 score 0-7.

“RNA1{[moe]([m5C])[sp].[moe](A)p.[moe](T)p.[moe](A)p.[moe]([m5C])p.[moe]([m5C])[sp].d([m5C])[sp].d(A)[sp].d(G)[sp].d(G)[sp].d(G)[sp].d(T)[sp].d(A)[sp].d(G)[sp].[moe](G)p.[moe](A)[sp].[moe](T)}$$$$ (last 3' nucleoside missing)”: the 3 h FOB score was determined as 2 score 0-7.

As for “RNA1{[moe]([m5C])[sp].[moe](A)p.[moe](T)p.[moe](G)p.[moe](T)p.d(G)[sp].d(G)[sp].d(G)[sp].d([m5C])[sp].d([m5C])[sp].d(T)[sp].d([m5C])[sp].d(T)[sp].d(A)[sp].d(T)[sp].[moe](T)p.[moe](A)p.[moe](A)[sp].[moe](G)}$$$$ (last 3' nucleoside missing)”, the 3 h FOB score was 4 score 0-7.

The substance “RNA1{[moe]([m5C])[sp].[moe](A)p.[moe](T)p.[moe](T)p.[moe](A)p.d(T)[sp].d(T)[sp].d([m5C])[sp].d(A)[sp].d(A)[sp].d(T)[sp].d(T)[sp].d(A)[sp].d(A)[sp].d(G)[sp].[moe](G)p.[moe](G)p.[moe](T)[sp].[moe](G)}$$$$ (last 3' nucleoside missing)” had a 3 h FOB score of 4 score 0-7.
